According to US20250345311A1, “CONJUGATE OF POLYPEPTIDE AND SMALL MOLECULE TARGETING KRAS AND ANTI-CANCER APPLICATION THEREOF” (Guangzhou Medical University, priority 2024, published 2025):
Like-named read-outs stand apart in the source and are kept apart here. Blank lines part the entries; values can stand above or below the compound they belong to.

Legend:
Format in all cases: cell-based
H358 cells [1] = assay: cells
Protocol: The cytotoxicity of HGPF, cyclic peptide (CLYDVAGSDKYCGP), FN1-8, and FN1-8 methylamino derivative (FN1-8-CH2-NH2) was detected through CCK8 experiment. The cyclic peptide (CLYDVAGSDKYCGP) has a sequence shown in SEQ ID NO: 4, and it is Cys-Leu-Tyr-Asp-Val-Ala-Gly-Ser-Asp Lys-Tyr-Cys-Gly-Pro. The experimental steps are as follows:
8.1 Plate laying: Inoculate H358 cells in logarithmic growth phase into a 96-well plate (100 μl/well), with 6 replicate wells per group and a cell count of 5×10^3 cells per well, then place and culture in a 37° C., 5% CO2 incubator for 12 hours.
8.2 Use different concentrations of HGPF, HGPF+FAPα, cyclic peptides, FN1-8, and FN1-8-CH2-NH2 to treat with the experimental group. First, prepare the above drugs into a 100 mM mother solution, and then set […], namely 100 μM, 50 μM, 25 μM, 12.5 μM, 6.25 μM, 3.125 μM, 1.5625 μM, and 0.78125 μM, wherein the HGPF+FAPα group was the group added FAPα (1 μM) after adding the above concentrations of HGPF to simulate the tumor tissue microenvironment.
8.3 After 24 hours, wash the cells twice with PBS, then add 100 μL of pre-mixed CCK8 solution (culture medium:CCK8 working solution=9:1) to each well, and then continue to culture in a 37° C., 5% CO2 incubator for 2 hours.
8.4 Use a microplate reader to measure the absorbance D (2) of each well at a wavelength of 450 nm. Analyze the D (2) values of the blank group, the control group, and the experimental group to determine cellular activity. The cell survival rate reflects the cytotoxicity of drugs. The groups are as follows: • Experimental group (culture medium containing cells, CCK-8, test drug) • Control group (culture medium containing cells, CCK-8, without test drug) • Blank group (culture medium without cells and test substance, containing CCK-8)

KRAS G12C = target: T1, KRAS G12C (Homo sapiens, UniProt P01116, G12C); assay: Specificity of HGP-FITC targeting KRAS G12C (pre-blocking, flow cytometry); conditions: then 25 μM HGP-FITC, 8 hours
T1 construct: endogenous in cells; host or cells: H358 lung cancer cells
Protocol: 6.3 Based on the flow cytometry results, select a concentration of 25 μM for subsequent experiments. The lung cancer cell line H358 (carrying KRAS G12C mutation) was first blocked with 1:1000 KRAS antibody or 10 μM Sotorasib (KRAS G12C inhibitor) for 24 hours, and then incubated with 25 μM HGP-FITC. Fluorescence uptake was detected by flow cytometry after 8 hours.

[2] = system: lung cancer cell line H358 (carrying KRAS G12C mutation); assay: Uptake of HGP-FITC by lung cancer cells, flow cytometry; conditions: different concentrations, 8 hours
Protocol: 6.2 Incubate lung cancer cell line H358 (carrying KRAS G12C mutation) with different concentrations of HGP-FITC, and detect by flow cytometry after 8 hours.

H358 cells [3] = assay: Scratch test, proliferation and migration of lung cancer cells; conditions: H358, 10 μM, 24 hours
Protocol: The inhibitory effects of the conjugate HGPF and cyclic peptide (CLYDVAGSDKYCGP) on the proliferation and migration of lung cancer cells were detected by scratch test. The experimental steps are as follows:
9.1 Plate laying: First, mark 3 positioning lines at the bottom of the 6-well plate, then inoculate H358 cells in logarithmic growth phase onto the 6-well plate (2 ml/well), with a cell count of 1×10^6 per well, and then culture in a 37° C., 5% CO2 incubator for 24 hours.
9.2 Marking: Place the plate cover above the 6-well plate, use a 100μ pipettor tip to draw 3 straight lines vertically for each hole; then wash 4 times with PBS to wash away floating cell debris.
9.3 Administration: Replace the culture medium with a medium containing 2% serum, administer 10 μM of the drug to each group, take photos at 0 and 24 hours, observe scratch healing, and analyze with ImageJ software.

T1 sequence (P01116 1-188 isoform P01116-2 G12C): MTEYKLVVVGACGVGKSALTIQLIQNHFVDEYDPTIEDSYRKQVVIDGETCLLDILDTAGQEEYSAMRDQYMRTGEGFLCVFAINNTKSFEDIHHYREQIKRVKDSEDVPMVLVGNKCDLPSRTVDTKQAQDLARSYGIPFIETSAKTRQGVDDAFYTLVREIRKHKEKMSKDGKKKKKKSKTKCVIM

Structure (SMILES): O=C(NCc1ccc(O)cc1)C1C(c2ccccc2)=NN(c2ccccc2)C1c1ccccc1 (stereo not drawn) [FN1-8, reference compound]
cytotoxicity against lung cancer cells (H358 cells [1]): good cytotoxicity | effect of further increasing the concentration on cell viability (H358 cells [1]; H358, 24 hours, up to 100 μM): cannot achieve the effect of completely inhibiting cell viability | IC50 (H358 cells [1]; Homo sapiens, NCI-H358, 24 h): 4.34 µM

Structure (SMILES): NCc1ccc(CNC(=O)C2C(c3ccccc3)=NN(c3ccccc3)C2c2ccccc2)cc1 (stereo not drawn) [FN1-8-CH2-NH2]
cytotoxicity against lung cancer cells (H358 cells [1]): good cytotoxicity | inhibition at 100 µM (H358 cells [1]; Homo sapiens, NCI-H358, 100 μM, 24 hours, read-out: inhibition rate on H358 cells): 100% | IC50 (H358 cells [1]; Homo sapiens, NCI-H358, H358, 24 hours, CCK8, read-out: IC50): 4.68 µM

Structure (SMILES): CC(C)C[C@@H]1NC(=O)[C@@H](N)CSSC[C@@H](C(=O)NCC(=O)N2CCC[C@H]2C(=O)O)NC(=O)[C@H](Cc2ccc(O)cc2)NC(=O)[C@H](CCCCN)NC(=O)[C@H](CC(=O)O)NC(=O)[C@H](CO)NC(=O)CNC(=O)[C@H](C)NC(=O)[C@H](C(C)C)NC(=O)[C@H](CC(=O)O)NC(=O)[C@H](Cc2ccc(O)cc2)NC1=O [cyclic peptide, Cys-Leu-Tyr-Asp-Val-Ala-Gly-Ser-Asp Lys-Tyr-Cys-Gly-Pro]
cytotoxicity against lung cancer cells (H358 cells [1]): weak cytotoxicity | inhibitory effect on proliferation and migration of tumor cells (H358 cells [3]; without FAPα): no inhibitory effect

The next lines start with results.

uptake of HGP-FITC by H358 cells after pre-block with Sotorasib (KRAS G12C; 10 μM Sotorasib 24 hours): significantly reduced | uptake of HGP-FITC by H358 cells after pre-block with KRAS antibody (KRAS G12C; 1:1000 KRAS antibody 24 hours): significantly reduced
Structure (SMILES): CC(C)C[C@@H]1NC(=O)[C@@H](N)CSSC[C@@H](C(=O)NCC(=O)N2CCC[C@H]2C(=O)NCCCCC(NC(=S)Nc2ccc3c(c2)C(=O)OC32c3ccc(O)cc3Oc3cc(O)ccc32)C(=O)O)NC(=O)[C@H](Cc2ccc(O)cc2)NC(=O)[C@H](CCCCN)NC(=O)[C@H](CC(=O)O)NC(=O)[C@H](CO)NC(=O)CNC(=O)[C@H](C)NC(=O)[C@H](C(C)C)NC(=O)[C@H](CC(=O)O)NC(=O)[C@H](Cc2ccc(O)cc2)NC1=O (stereo partly drawn) [HGP-FITC]
uptake of HGP-FITC by H358 cells [2]: concentration dependent manner

IC50 (H358 cells [1]; 24 h): 3.66 µM
Structure (SMILES): CC(C)C[C@@H]1NC(=O)[C@@H](N)CSSC[C@@H](C(=O)NCC(=O)N2CCC[C@H]2C(=O)NCc2ccc(CNC(=O)C3C(c4ccccc4)C(c4ccccc4)=NN3c3ccccc3)cc2)NC(=O)[C@H](Cc2ccc(O)cc2)NC(=O)[C@H](CCCCN)NC(=O)[C@H](CC(=O)O)NC(=O)[C@H](CO)NC(=O)CNC(=O)[C@H](C)NC(=O)[C@H](C(C)C)NC(=O)[C@H](CC(=O)O)NC(=O)[C@H](Cc2ccc(O)cc2)NC1=O (stereo partly drawn) [HGPF]
cytotoxicity against lung cancer cells (H358 cells [1]): weak cytotoxicity | inhibitory effect on proliferation and migration of tumor cells (H358 cells [3]; with FAPα): significantly inhibited | inhibitory effect on proliferation and migration of tumor cells (H358 cells [3]; without FAPα): no inhibitory effect
